Literature values in patent publication US6197304A, “Whitening cosmetics containing solvent-fractionated extracts of ramulus mori extract” (priority 1997, dated 2001).
“Also recorded” adds a separate entry of the source.

How the values were obtained:
tyrosinase = conditions: prior art
skin = conditions: prior art

| SMILES | tyrosinase inhibition / whitening activity (in words) (tyrosinase) | skin irritation (in words) (skin) |
| --- | --- | --- |
| O=C1O[C@H]([C@@H](O)CO)C(O)=C1O [Ascorbic acid, ascorbic acid] | relatively low activity of inhibiting tyrosinase |  |
| O=c1cc(CO)occ1O [Comparative 3, kojic acid] | high activity; also recorded: relatively high whitening effect |  |
| Oc1ccc(O)cc1 [Hydroquinone, hydroquinone] |  | irritates the skin strongly |
